In patent publication EP0934065B1, “NOVEL CRYPTOPHYCIN DERIVATIVES AS ANTI-NEOPLASTIC AGENTS” (priority 1996, dated 1998):
Values after ≈ are worked out from the molar mass of the structure shown. Structures can show the parent of a compound that is named as a salt. Where two headings read alike, the source gives them in different places.

Assays:
[1] = tested on: GC3 human colon carcinoma cells; assay: cells; format: cell-based; conditions: 72 hours incubation, MTT
Method: Selected wells of a 96 well plate were seeded with GC3 human colon carcinoma cells ([…] cells in 100µl assay medium/well) twenty four hours prior to test compound addition. Cell free assay medium was added to other select wells of the 96 well plate. The assay medium (RPMI-1640 was the medium used; however, any medium that will allow the cells to survive would be acceptable) was supplemented with 10% dialyzed fetal bovine serum and 25 mM HEPES buffer.
The test compound was stored in an amber bottle prior to testing. Fresh dimethylsulfoxide stock solution (200µg/ml) was prepared immediately prior to preparation of test sample dilutions in phosphate-buffered saline (PBS). A dilution of 1:20 dimethylsulfoxide solution in PBS was prepared such that the final concentration was 10 µg/ml. Serial 1:3 dilutions using PBS (.5ml previous sample of 1ml PBS) were prepared. Falcon 2054 tubes were used for the assay.
A 10ul sample of each dilution of test compound was added in triplicate to wells of GC3 plates. The plates were incubated for 72 hours at about 37°C. A 10µl sample of stock […] salt ("MTT" 5 mg/ml in PBS) was added to each well. The plates were incubated for about an hour at 37°. The plates were centrifuged, media was decanted from the wells and 100µl acid-isopropanol (0.04 N HCl in isopropanol) was added to each well. The plate was read within one hour using a test wavelength of 570nm (SpectraMax reader).

[2] = physchem; format: physicochemical; conditions: for solubility: water
[3] = physchem
Description: Table 4. Solubility of cryptophycin glycinate 12 in various parenteral vehicles.

[4] = tested on: A-10 rat aortic smooth muscle cells; assay: Immunofluorescence: effects on the cytoskeleton; format: cell-based; conditions: A-10 cells, 2µM cytochalasin B, 24 hours
Method: (§1) A-10 cells are grown to near-confluency on glass coverslips in BME/10% FBS. Compounds in PBS are added to the indicated final concentrations and cells are incubated for an additional 24 hours. For the staining of microtubules and intermediate filaments, the cells are fixed with cold methanol and incubated with PBS containing 10% calf serum to block nonspecific binding sites. Cells are then incubated at 37°C for 60 min. With either monoclonal anti-β-tubulin or with monoclonal anti-vimentin at dilutions recommended by the manufacturer. Bound primary antibodies are subsequently visualized by a 45 minute incubation with fluorescein-conjugated rabbit antimouse IgG. The coverslips are mounted on microscope slides and the fluorescence patterns are examined and photographed using a Zeiss Photomicroscope I11 equipped with epifluorescence optics for fluorescein. […] PBS containing 100nM TRITC-phalloidin is then added and the mixture is allowed to incubate for 45 min. At 37°C. The cells are washed rapidly with PBS before the coverslips are mounted and immediately photographed as described above.
After 24 hours, microtubules and vimentin intermediate filaments are visualized by indirect immunofluorescence and microfilaments are stained using TRITC-phalloidin. The morphological effects of each drug is examined. […]

[5] = tested on: A-10 cells; assay: Reversibility of microtubule depolymerization; format: cell-based, rat; conditions: 100nM vinblastine 24 hr
Method: as §1
The cells are then washed and incubated in drug-free medium for periods of 1 hour or 24 hours. […] Cells are visualized for microtubule state after treatment with a cryptophycin compound of this invention at either 1 hour or 24 hours after removal of the cryptophycin compounds.

[6] = tested on: A-10 cells; assay: Effects on taxol-stabilized microtubules; format: cell-based, rat
Method: as §1
After 24 hours, microtubule organization is examined by immunofluorescence as described above. […] Similarly, microtubules pretreated with taxol are observed with cryptophycin treatment.

[7] = pH 8, room temperature, read-out: solubility value

Compound: COc1ccc(CC2NC(=O)C=CCC(C(C)C(OC(=O)CCN)C(Cl)c3ccccc3)OC(=O)C(CC(C)C)OC(=O)C(C)(C)CNC2=O)cc1Cl (stereo not shown) [Compound 14, Cryptophycin 55 b-alaninate hydrochloride salt]
- IC50 [1]: 21 nM

Compound: Cryptophycin 55 N-t-Boc-glycinate [Compound 11]
- IC50 ([1]; Table 2 of Example 94): 6.8 nM

Compound: COc1ccc(C[C@H]2NC(=O)/C=C/C[C@@H]([C@H](C)[C@@H](OC(=O)[C@@H](N)CCCCN)[C@@H](Cl)c3ccccc3)OC(=O)[C@H](CC(C)C)OC(=O)C(C)(C)CNC2=O)cc1Cl [Compound 22, Cryptophycin 55 (L)-lysinate di-hydrochloride salt]
- IC50 [1]: 7.2 nM

Compound: Cryptophycin 55 N-t-Boc-(D)-alaninate [Compound 19]
- IC50 ([1]; Table 2 of Example 94): 0.1 nM

Compound: Cryptophycin 55 N-t-Boc-3-(3-chloro-4-methoxyphenyl)-(D)-alaninate [Compound 9]
- IC50 ([1]; Table 2 of Example 94): 2.2 nM

Compound: COc1ccc(CC2NC(=O)C=CCC(C(C)C(OC(=O)C(C)N)C(Cl)c3ccccc3)OC(=O)C(CC(C)C)OC(=O)C(C)(C)CNC2=O)cc1Cl (stereo not shown) [Compound 18, Cryptophycin 55 (L)-alaninate hydrochloride salt]
- IC50 [1]: 2.6 nM

Compound: COc1ccc(C[C@H]2NC(=O)/C=C/C[C@@H]([C@H](C)[C@@H](O)[C@@H](Cl)c3ccccc3)OC(=O)[C@H](CC(C)C)OC(=O)C(C)(C)CNC2=O)cc1Cl [Compound 1, cryptophycin 55]
- aqueous solubility over the pH range studied ([2]; aqueous pH 4-8, room temperature): declined as the pH bacame basic
- solubility ([2]; pH 4, water, pH of 4, read-out: aqueous solubility value): ~50 µg/mL (≈ 70.9 µM)
- solubility [2, 7]: 10 µg/mL (≈ 14.2 µM)
- Comparative solubilities ([3]; excipient 1: Propylene Glycol 15, Ethanol 10 %v/v, volume adjusted 0.05M acetate buffer, BQL = Below quantitation limit, approximately 0.001 mg/ml): BQL

Compound: COc1ccc(CC2NC(=O)C=CCC(C(C)C(OC(=O)C(N)CO)C(Cl)c3ccccc3)OC(=O)C(CC(C)C)OC(=O)C(C)(C)CNC2=O)cc1Cl (stereo not shown) [Compound 46, Cryptophycin 55 (L)-serinate hydrochloride salt]
- IC50 ([1]; Table 2 of Example 94): 50 nM

Compound: Cryptophycin 55 (D)-aspartate hydrochloride salt [Compound 40]
- IC50 ([1]; Table 2 of Example 94): 2 nM

Compound: Cryptophycin 55 (L) -γ-glutamate hydrochloride salt [Compound 42]
- IC50 ([1]; Table 2 of Example 94): 15 nM

Compound: C=C1[C@@H](C)[C@H]2[C@H](Cc3ccccc3)NC(=O)[C@]23OC(=O)/C=C/[C@H](O)CCC[C@@H](C)C/C=C/[C@H]3[C@@H]1O [Cytochalasin B, cytochalasin B]
- effect on microfilaments ([4]; TRITC-phalloidin): complete depolymerization of microfilaments
- effect on distribution of microtubules and intermediate filaments ([4]; indirect immunofluorescence): did not affect the distribution of either microtubules or intermediate filaments

Compound: Cryptophycin 55 N-methylpyridinium acetate salt [Compound 8]
- IC50 [1]: 2.2 nM
- IC50 ([1]; Table 2 of Example 94): 116 nM

Compound: Cryptophycin 55 (2'-di-t-butylphosphatyl)phenylacetate [Compound 5]
- IC50 ([1]; Table 2 of Example 94): 31 nM

Compound: Cryptophycin 55 (L)-α-glutamate hydrochloride salt [Compound 36]
- IC50 ([1]; Table 2 of Example 94): 2.8 nM

Compound: COc1ccc(CC2NC(=O)C=CCC(C(C)C(OC(=O)C(N)CCCCN)C(Cl)c3ccccc3)OC(=O)C(CC(C)C)OC(=O)C(C)(C)CNC2=O)cc1Cl (stereo not shown) [Compound 34, Cryptophycin 55 (D)-lysinate di-hydrochloride salt]
- IC50 ([1]; Table 2 of Example 94): 6.5 nM

Compound: CC[C@]1(O)C[C@@H]2CN(CCc3c([nH]c4ccccc34)[C@@](C(=O)OC)(c3cc4c(cc3OC)N(C)[C@H]3[C@@](O)(C(=O)OC)[C@H](OC(C)=O)[C@]5(CC)C=CCN6CC[C@]43[C@@H]65)C2)C1 [Vinblastine, vinblastine]
- microtubule repolymerization after removal of drug ([5]; then drug-free medium 1 hour): significant levels of microtubules
- microtubule repolymerization after removal of drug ([5]; then drug-free medium 24 hours): complete morphological recovery
- microtubule depolymerization, non-pretreated cells ([6]; 100nM vinblastine, 24 hours): complete depolymerization of microtubules
- microtubule depolymerization after pretreatment with taxol ([6]; 3 hours 10µM taxol, then 100nM vinblastine, 24 hours): pretreatment with taxol prevented microtubule depolymerization

Compound: CC(=O)O[C@H]1C(=O)[C@@]2(C)[C@H]([C@H](OC(=O)c3ccccc3)[C@]3(O)C[C@H](OC(=O)[C@H](O)[C@@H](NC(=O)c4ccccc4)c4ccccc4)C(C)=C1C3(C)C)[C@]1(OC(C)=O)CO[C@@H]1C[C@@H]2O [Taxol, taxol]
- microtubule organization ([6]; 10µM taxol, compared with control cells): extensively bundled

Compound: Cryptophycin 55 glycidylglycinate hydrochloride salt [Compound 47]
- IC50 ([1]; Table 2 of Example 94): 2.5 nM

Compound: Cryptophycin 55 3,6,9-tioxadecanoate [Compound 48]
- IC50 ([1]; Table 2 of Example 94): 10 nM

Compound: Cryptophycin 55 nicotinoate hydrochloride salt [Compound 7]
- IC50 [1]: 116 nM
- IC50 ([1]; Table 2 of Example 94): 3.7 nM

Compound: COc1ccc(C[C@H]2NC(=O)/C=C/C[C@@H]([C@H](C)[C@@H](OC(=O)CN)[C@@H](Cl)c3ccccc3)OC(=O)[C@H](CC(C)C)OC(=O)C(C)(C)CNC2=O)cc1Cl [Compound 12]
- solubility [2, 7]: 30 µg/mL (≈ 39.3 µM)
- solubility ([3]; 0.05m acetate buffer, pH 4, aqueous buffer, Comparative solubilities, excipient 5: 0.05M Acetate buffer pH 4.0 100 %v/v): 30 µg/mL (≈ 39.3 µM)
- solubility ([3]; emulphor el719 in acetate buffer, aqueous buffer, Comparative solubilities, excipient 4: Emulphor EL719 1 (w/v), volume adjusted 0.05M acetate buffer): 1500 µg/mL (≈ 1970 µM)
- solubility ([3]; ethanol/acetate buffer, pH 4, organic solvent or mixture, Solubility in parenteral vehicle, vehicle 3: Ethanol 10 %v/v, 0.05M Acetate buffer pH 4.0 qs): 1290 µg/mL (≈ 1690 µM)
- solubility ([3]; ethanol/propylene glycol/acetate buffer, pH 4, organic solvent or mixture, Solubility in parenteral vehicle, vehicle 2: Ethanol 10, Propylene Glycol 10 %v/v, 0.05 M Acetate buffer pH 4.0 qs): 1990 µg/mL (≈ 2610 µM)
- solubility ([3]; ethanol/propylene glycol/acetate buffer, pH 4, organic solvent or mixture, Solubility in parenteral vehicle, vehicle 6: Ethanol 10, Propylene Glycol 25 %v/v, 0.05 M Acetate buffer pH 4.0 qs): 10300 µg/mL (≈ 13500 µM)
- solubility ([3]; ethanol/propylene glycol/acetate buffer, pH 4, organic solvent or mixture, Solubility in parenteral vehicle, vehicle 7: Ethanol 10, Propylene Glycol 15 %v/v, 0.05 M Acetate buffer pH 4.0 qs): 4320 µg/mL (≈ 5660 µM)
- solubility ([3]; ethanol/propylene glycol/citrate buffer, pH 4, organic solvent or mixture, Solubility in parenteral vehicle, vehicle 1: Ethanol 10, Propylene Glycol 10 %v/v, 0.05 M Citrate buffer pH 4.0 qs): 110 µg/mL (≈ 144 µM)
- solubility ([3]; polysorbate 80/acetate buffer, pH 4, Solubility in parenteral vehicle, vehicle 5: Polysorbate 80 0.5 (w/v), 0.05 M Acetate buffer pH 4.0 qs): 2210 µg/mL (≈ 2900 µM)
- solubility ([3]; polysorbate 80 in acetate buffer, aqueous buffer, Comparative solubilities, excipient 3: Polysorbate 80 1(w/v), volume adjusted 0.05M acetate buffer, BQL = Below quantitation limit, approximately 0.001 mg/ml): 1000 to 2000 µg/mL (≈ 1310 to 2620 µM)
- solubility ([3]; propylene glycol/acetate buffer, pH 4, organic solvent or mixture, Solubility in parenteral vehicle, vehicle 4: Propylene Glycol 10 %v/v, 0.05 M Acetate buffer pH 4.0 qs): 1580 µg/mL (≈ 2070 µM)
- solubility ([3]; propylene glycol/ethanol/acetate buffer, organic solvent or mixture): > 2000 µg/mL
- solubility ([3]; propylene glycol/peg 3000/acetate buffer, organic solvent or mixture): > 2000 µg/mL
- IC50 ([1]; Homo sapiens, Colon carcinoma cell): 0.1 nM

Compound: Cryptophycin 55 (L)-aspartate hydrochloride salt [Compound 38]
- IC50 ([1]; Table 2 of Example 94): 1.6 nM

Compound: Cryptophycin 55 Na-Ne-di-t-Boc-(L)-lysinate [Compound 21]
- IC50 ([1]; Table 2 of Example 94): 21 nM

Compound: COc1ccc(CC2NC(=O)C=CCC(C(C)C(OC(=O)[C@@H](N)CN)C(Cl)c3ccccc3)OC(=O)C(CC(C)C)OC(=O)C(C)(C)CNC2=O)cc1Cl (stereo partly drawn) [Compound 44, Cryptophycin 55 (S)-2,3-diaminopropionate dihydrochloride salt]
- IC50 ([1]; Table 2 of Example 94): 28 nM
